{
  "source": "paper PMC7646182",
  "about": "“Design and biological evaluation of novel BF-30 analogs for the treatment of malignant melanoma” (Journal of Cancer, 2020)",
  "system": "B16F10 melanoma",
  "test": "Chronic study in B16F10-bearing mouse model",
  "type": "in vivo",
  "conditions": "B16F10-bearing C57BL/6J mice, 4-week treatment; LBF-14 0.3 and 0.9 mg/kg, cisplatinum 0.1 mg/kg, n=10",
  "description": "The B16F10 cells (0.1 ml, 5×10^6 cells, cell viability >99%) were subcutaneously transplanted into the C57BL/6J mice. In the next 15 days, the length (L), width (W) and height (H) of tumours were measured with a caliper to calculate tumour volume using the formula: V = π/6×L×W×H. When the tumours grew to 150-350 mm^3, the melanoma model mice were randomly divided into five groups (n=10) and received saline, native BF-30 at 0.9 mg/kg, LBF-14 at […] doses of 0.3 and 0.9 mg/kg, and cisplatinum at the dose of 0.1 mg/kg, respectively. All the samples including the saline and different doses of LBF-14 were administered twice weekly by intra-tumour injection (50 μl) for 4 successive weeks. All melanoma model mice were weighted and sacrificed at the end of the experimental period (day 29). The anti-tumour efficacies of LBF-14 at both two doses were presented as inhibitory rates (%) which were calculated as [(A-B)/A]×100% (average tumour weight of (A) saline treated group and (B) LBF-14 treated groups, respectively). In addition, the tumours from the B16F10-bearing mice were separated and then performed H&E staining according to the standard operating procedures.",
  "data": [
    {"smiles": "N.N.[Cl][Pt][Cl]", "note": "[cisplatinum]", "values": [
      {"measurement": "effect on body weight of model mice", "value": "significant decrease in body weight"}
    ]}
  ]
}
